Results: paper PMC12386351, “Monoterpene Indole Alkaloids with Antimicrobial Activity Against Helicobacter pylori” (International Journal of Molecular Sciences, 2025)
≈ marks a conversion by molar mass, not a printed value. Entries after “also recorded” stand apart in the source; their conditions may differ.

Tested on: H. pylori reference strain J99
Experiment: MIC and MBC by microdilution against H. pylori reference strain J99
Type: cell-based, Helicobacter pylori
Conditions: H. pylori J99; (-) = MBC not determined, as bacterial growth was observed at all tested concentrations (up to 20 µM)
Method: To evaluate the activity of the natural products library, in vitro assays were conducted to determine the MIC and MBC against the H. pylori reference strain J99. […] The microplates were then incubated at 37 °C in microaerophilic conditions for 48 h with agitation of 140 rpm. After incubation, the optical density was read at 600 nm (BioTek Epoch2, Agilent, Winooski, VT, USA). All assays were performed in duplicate. DMSO at a concentration of 1% (v/v) was included as a negative control to assess the baseline effect of the solvent, in which bacterial growth was expected, while kanamycin (Sigma-Aldrich, St. Louis, MO, USA) at a concentration of 8 µg/mL was used as a positive control to provide a benchmark for effective antibacterial activity. MIC values were defined as the lowest concentration of a compound that inhibited the growth of H. pylori. MBC values were determined by plating 5 µL aliquots of each dilution onto H. pylori-selective medium, followed by incubation as described above. MBC was defined as the lowest concentration of a compound that rendered no visible colony formation on the solid medium, indicating bactericidal activity.

With `CCC1CN(C)C2Cc3c([nH]c4ccccc34)C(=NN=CC=Cc3ccccc3)CC1C2C(=O)OC` (centres unmarked) [Compound 3, Dregamine(phenylallylidene)hydrazone] the MBC was 20 (20) µM.

Same assay, conditions: Helicobacter pylori; H. pylori J99, 48 h, 2-fold dilutions 20 to 0.625 µM

`CCC1CN(C)C2Cc3c([nH]c4ccccc34)C(=NN=CC=Cc3ccccc3)CC1C2C(=O)OC` (centres unmarked) [Compound 3, Dregamine(phenylallylidene)hydrazone] and `CCC1CN(C)C2Cc3c([nH]c4ccccc34)C(=NN=Cc3ccccc3O)CC1C2C(=O)OC` (centres unmarked) [Compound 5, Dregamine(2′-hydroxybenzylidene)hydrazone] are the same in MIC: 20 µM for the first, 20 µM for the second.

`CCC1CN(C)C2Cc3c([nH]c4ccccc34)C(=NN=Cc3c[nH]c4ccccc34)CC1C2C(=O)OC` (centres unmarked) [Compound 4, Dregamine(indolylmethylene)hydrazone] and `CCC1CN(C)C2Cc3c([nH]c4ccccc34)C(=NN=Cc3c[nH]c4cc(Br)ccc34)CC1C2C(=O)OC` (centres unmarked) [Compound 6, Dregamine(6′bromo-3′indolylmethylene)hydrazone] are the same in MIC: 10 µM for the first, 10 µM for the second.

For `CCC1CN(C)C2Cc3c([nH]c4ccccc34)C(c3c(OC)ccc4c5c([nH]c34)C3(C(=O)OC)CC4CC(CC)C3N(CC5)C4CC(C)=O)CC1C2C(=O)OC` (centres unmarked) [Compound 7, Tabernaelegantinine A], the MIC was 20 µM.

Same assay, conditions: Helicobacter pylori; H. pylori J99; (-) = MBC not determined, as bacterial growth was observed at all tested concentrations (up to 20 µM); read-out: MBC

`CCC1CN(C)C2Cc3c([nH]c4ccccc34)C(=NN=CC=Cc3ccccc3)CC1C2C(=O)OC` (centres unmarked) [Compound 3, Dregamine(phenylallylidene)hydrazone] and `CCC1CN(C)C2Cc3c([nH]c4ccccc34)C(=NN=Cc3c[nH]c4cc(Br)ccc34)CC1C2C(=O)OC` (centres unmarked) [Compound 6, Dregamine(6′bromo-3′indolylmethylene)hydrazone] are the same in MBC: 20 µM (≈ 9.65 µg/mL) for the first, 20 µM (≈ 11.5 µg/mL) for the second.

Same assay, conditions: Helicobacter pylori; H. pylori J99; after conversion from µM to µg/mL

`CCC1CN(C)C2Cc3c([nH]c4ccccc34)C(=NN=CC=Cc3ccccc3)CC1C2C(=O)OC` (centres unmarked) [Compound 3, Dregamine(phenylallylidene)hydrazone] and `CCC1CN(C)C2Cc3c([nH]c4ccccc34)C(=NN=Cc3ccccc3O)CC1C2C(=O)OC` (centres unmarked) [Compound 5, Dregamine(2′-hydroxybenzylidene)hydrazone] are within 1.5-fold of each other in MIC: 9.65 µg/mL for the first, 9.45 µg/mL for the second.

`CCC1CN(C)C2Cc3c([nH]c4ccccc34)C(=NN=Cc3c[nH]c4ccccc34)CC1C2C(=O)OC` (centres unmarked) [Compound 4, Dregamine(indolylmethylene)hydrazone] and `CCC1CN(C)C2Cc3c([nH]c4ccccc34)C(=NN=Cc3c[nH]c4cc(Br)ccc34)CC1C2C(=O)OC` (centres unmarked) [Compound 6, Dregamine(6′bromo-3′indolylmethylene)hydrazone] are within 1.5-fold of each other in MIC: 4.96 µg/mL for the first, 5.75 µg/mL for the second.

Work on `CCC1CN(C)C2Cc3c([nH]c4ccccc34)C(c3c(OC)ccc4c5c([nH]c34)C3(C(=O)OC)CC4CC(CC)C3N(CC5)C4CC(C)=O)CC1C2C(=O)OC` (centres unmarked) [Compound 7, Tabernaelegantinine A] yielded an MIC of 15.2 µg/mL.

Tested on: VERO cells
Experiment: MTT cytotoxicity assay on VERO cells
Type: cell-based
Conditions: 48 h, 10 to 80 µM, versus DMSO and untreated controls
Method: (§1) The cytotoxicity of the compounds showing antibacterial activity was evaluated in VERO cell cultures (FTVE, Vircell, S.L., Granada, Spain) using the standard MTT colorimetric assay. Briefly, sub confluent cell cultures were exposed for 48 h, to 2-fold dilutions of each assayed compound, ranging from 80 to 10 µM, in 100 μL CO2-independent medium supplemented with 5% FBS and […] gentamicin (Gibco^TM, Grand Island, NY, USA) (CO2-ind-FBS5). In each assay, cells exposed to equivalent concentrations of DMSO as solvent and untreated cells were kept as controls; untreated cells were considered the baseline for 100% viability.
(§2) After 48-h incubation at 37 °C, the culture medium was replaced by fresh CO2-ind-FBS5 medium supplemented with 0.5 mg/mL MTT (Thermo Fisher Scientific, Waltham, MA, USA). Upon a 3-h incubation at 37 °C, the medium was carefully discarded, and the purple formazan crystals formed were dissolved in DMSO (100 μL/well) during a 15-min incubation with agitation at room temperature, followed by absorbance reading at 570 nm, with reference wavelength at 630 nm (BioTek Epoch2, Agilent, Winooski, VT, USA). Data analysis and visualization were performed using Excel (v.2408) and RStudio (v. 2024.04.2). When possible, the half maximal cytotoxic concentration (CC50) values were determined for each compound by fitting a dose–response three- or four-parameter log-logistic function to the triplicate experimental points using RStudio (v.2024.04.2).
(§3) The selectivity index (SI) is the ratio of the cytotoxic concentration for 50% of the cells (CC50) to the inhibitory concentration for 50% of the bacteria (IC50). Considering that IC50 values were not calculated, but are expectably lower than the MIC value, the SI was estimated by dividing the CC50 by the MIC. Therefore, this value is necessarily lower than the SI because the MIC, rather than the bacterial half-maximal inhibitory concentration (IC50), was used in the calculation. This approach allows for an estimation of the therapeutic potential of the compound by providing an indication of its selectivity for targeting bacterial cells over host cells, even though the MIC is used instead of the bacterial IC50.
(§4) To compare biofilm formation between groups (negative control, H. pylori J99, and compound treatments), one-way analysis of variance (ANOVA) was performed, followed by Tukey’s post-hoc test for multiple comparisons. Data analysis was conducted using Python 3.13.5. Similarly, for the cytotoxicity assay in VERO cells, ANOVA and Tukey’s post-hoc test were also used to compare groups at each tested concentration (ranging from 80 to 10 µM), with DMSO-treated and untreated cells as reference groups.

With `CCC1CN(C)C2Cc3c([nH]c4ccccc34)C(=NN=Cc3c[nH]c4cc(Br)ccc34)CC1C2C(=O)OC` (centres unmarked) [Compound 6, Dregamine(6′bromo-3′indolylmethylene)hydrazone] the “Effect on cell viability (MTT)” value was “only a slight decrease in cell viability; also recorded: did not induce significant cytotoxicity at any tested concentration”.
For `CCC1CN(C)C2Cc3c([nH]c4ccccc34)C(c3c(OC)ccc4c5c([nH]c34)C3(C(=O)OC)CC4CC(CC)C3N(CC5)C4CC(C)=O)CC1C2C(=O)OC` (centres unmarked) [Compound 7, Tabernaelegantinine A], the “Effect on cell viability (MTT)” value was “only a slight decrease in cell viability; also recorded: significant effects only at 80 µM”.

Tested on: not listed separately
Experiment: MTT cytotoxicity assay on VERO cells
Type: cell-based
Conditions: African green monkey, MTT, 80 to 10 µM
Method: as §1, §2, §3, §4

`CCC1CN(C)C2Cc3c([nH]c4ccccc34)C(=NN=CC=Cc3ccccc3)CC1C2C(=O)OC` (centres unmarked) [Compound 3, Dregamine(phenylallylidene)hydrazone] and `CCC1CN(C)C2Cc3c([nH]c4ccccc34)C(=NN=Cc3ccccc3O)CC1C2C(=O)OC` (centres unmarked) [Compound 5, Dregamine(2′-hydroxybenzylidene)hydrazone] are within 1.5-fold of each other in CC50 at 48 h: 44.1 ± 2.4 µM for the first, 55.8 ± 4.5 µM for the second.

Compared with `CCC1CN(C)C2Cc3c([nH]c4ccccc34)C(=NN=Cc3c[nH]c4ccccc34)CC1C2C(=O)OC` (centres unmarked) [Compound 4, Dregamine(indolylmethylene)hydrazone], `CCC1CN(C)C2Cc3c([nH]c4ccccc34)C(=NN=Cc3c[nH]c4cc(Br)ccc34)CC1C2C(=O)OC` (centres unmarked) [Compound 6, Dregamine(6′bromo-3′indolylmethylene)hydrazone] is higher in CC50 at 48 h: 47 ± 2.2 µM for the first, over 80 µM for the second.

With `CCC1CN(C)C2Cc3c([nH]c4ccccc34)C(c3c(OC)ccc4c5c([nH]c34)C3(C(=O)OC)CC4CC(CC)C3N(CC5)C4CC(C)=O)CC1C2C(=O)OC` (centres unmarked) [Compound 7, Tabernaelegantinine A] the CC50 at 48 h was over 80 µM.
